Series [1] concerns Meloidogyne incognita. Put plainly: Meloidogyne incognita test (MELGIN), gall formation on salad seedlings. Type of series: in vivo. The following applies: application rate 20 ppm, after 14 days. In short, it runs like this: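 Sand vessels treated with acetone-formulated compound diluted in water, then inoculated with M. incognita eggs and larvae and sown with salad seeds. Root galling assessed after 14 days: 100% = no galls, 0% = galling equal to untreated plants.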

The subject of series [2] is Haemonchus contortus. The experiment in a line: Haemonchus contortus test (HAEMCO), larval mortality. Type of series: in vivo. The conditions noted are these: 120 h, read-out: activity (larval mortality). The method, then: Haemonchus contortus—Test (HAEMCO) Solvent: dimethyl sulfoxide
(§1) To produce a suitable preparation of active compound, 10 mg of active compound are dissolved in 0.5 ml solvent, and the concentrate is diluted with “Ringer's solution” to the desired concentration.
Approximately 40 larvae of the red stomach worm (Haemonchus contortus) are transferred into a test tube containing compound solution.
After 5 days percentage of larval mortality are recorded. 100% efficacy means all larvae are killed, 0% efficacy means no larvae are killed.

The nature of series [3]: Measurement of log P values by HPLC on reversed phase columns (methods [a] pH 2.3, [b] pH 2.7, [c] pH 7.8). In kind it is physicochemical. The conditions noted are these: for chromatographic logP: reversed phase HPLC columns, read-out: logP. In short, it runs like this: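 Determined per EEC Directive 79/831 Annex V.A8 by reversed-phase HPLC, 10-95% acetonitrile gradient: [a] pH 2.3, 0.1% phosphoric acid; [b] LC-MS, pH 2.7, 0.1% formic acid; [c] LC-MS, pH 7.8, 0.001 molar ammonium hydrogen carbonate. Calibrated with C3-C16 alkan-2-ones by retention-time interpolation.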

Series [4] relates to Cooperia curticei. The experiment in a line: Cooperia curticei test (COOPCU), larval mortality. In kind it is in vivo. The following applies: for mortality at 20 ppm: Cooperia curticei, 120 h, read-out: activity (larval mortality); for activity (larval mortality): application rate 4 ppm, after 5 days. The method, then: Cooneria curtice—Test (COOPCU) Solvent: dimethyl sulfoxide
as §1
Approximately 40 nematode larvae (Cooperia curticei) are transferred into a test tube containing the compound solution.
After 5 days percentage of larval mortality is recorded. 100% efficacy means all larvae are killed; 0% efficacy means no larvae are killed.

Series [5] concerns Boophilus microplus. The experiment in a line: Boophilus microplus injection test (BOOPMI Inj). In kind it is in vivo. The following applies: application rate 20 μg/animal, injection into abdomen of adult engorged female ticks, after 7 days. The method, then: Boonhilus micronlus—Injectiontest (BOOPMI Inj)
Solvent: dimethyl sulfoxide
To produce a suitable preparation of active compound, 10 mg of active compound are dissolved in 0.5 ml solvent, and the concentrate is diluted with solvent to the desired concentration.
Five adult engorged female ticks (Boophilus microplus) are injected with 1 μl compound solution into the abdomen. Ticks are transferred into replica plates and incubated in a climate chamber.
After 7 days the egg deposition of fertile eggs is monitored. Eggs where fertility is not visible are stored in a climate chamber till hatching after about 42 days. An efficacy of 100% means that all eggs are infertile; 0% means that all eggs are fertile.

Where [6] appears, read: HPLC reversed phase, method [b] (pH 2.7).
Where [7] appears, read: pH 2.7, HPLC reversed phase, method [b] (pH 2.7).

Like-named read-outs stand apart in the source and are kept apart here.

On to `O=C(N[C@@H]1CC[C@@H]1c1ccccc1C(F)(F)F)c1cccnc1Cl` [Compound 621], for which the “nematicidal activity (percentage of gall formation; 100% = no galls)” value in series [1] is given as 100%. For the same compound, the mortality – broadly, the percentage killed – at 20 ppm in series [2] amounted to 90%; in series [4], 100%. For the same compound, in series [3] (pH 2.7, HPLC on reversed phase column, method [b], pH 2.7), the chromatographic logP turned out to be 2.64.
Consider `O=C(N[C@@H]1C[C@@H]1c1ccc(Cl)cc1Cl)c1ccccc1Br` (relative stereo) [Compound 579], for which the logP in series [3] (setting [6]) was 3.32^[b]. Besides, the “activity (larval mortality)” value in series [4] is reported as 80%.
The corresponding values for `O=C(NC1CCC1c1ccc(Cl)cc1Cl)c1ccccc1` (stereo not shown) [Compound 451] are 3.30^[b] and 90%.
Take `Cc1nn(C)c(F)c1C(=O)N[C@@H]1C[C@H]1c1ccccc1Cl` (relative stereo) [Compound 49]: the “activity (efficacy: infertile eggs)” value in series [5] was found to be 80%. The logP in series [3] (HPLC on reversed phase columns, method [b], pH 2.7) was 2.40^[b].
Turning to `O=C(N[C@@H]1CC[C@@H]1c1ccc(Cl)cc1Cl)c1ccccc1I` [Compound 456], the “nematicidal activity (percentage of gall formation; 100% = no galls)” value in series [1] stood at 100%. Moreover, the mortality at 20 ppm in series [2] and in series [4] was 100% each time. Further, the chromatographic logP in series [3] (setting [7]) turned out to be 3.75.
As to `O=C(NC1CC1c1ccc(Cl)cc1Cl)c1sccc1I` (stereo not shown) [Compound 212], the “nematicidal activity (percentage of gall formation; 100% = no galls)” value in series [1] was determined as 100%. Besides, the logP in series [3] (method [b], HPLC reversed phase, pH 2.7) was 4.10^[b]; in series [3] (method [c], HPLC reversed phase, pH 7.8), 4.04^[c];.
On to `O=C(N[C@@H]1CC[C@@H]1c1c(F)cccc1F)c1ccccc1C(F)(F)F` [Compound 513], for which, in series [1], the “nematicidal activity (percentage of gall formation; 100% = no galls)” value is 100%. For the same compound, the mortality at 20 ppm was found to be 90% in series [2] and 80% in series [4]. In addition, the chromatographic logP in series [3] (setting [7]) came out at 3.15.
`O=C(NC1CC1c1ccc(Cl)cc1)c1nccnc1Cl` (stereo not shown) [Compound 461]: the “nematicidal activity (percentage of gall formation; 100% = no galls)” value in series [1] is on record as 100%. The logP in series [3] (setting [6]) was 2.29^[b]; in series [3] (HPLC reversed phase, method [c] pH 7.8), 2.27^[c];.
With `O=C(N[C@@H]1CC[C@@H]1c1cccc(F)c1C(F)(F)F)c1ccccc1I` (relative stereo) [Compound 599], the “nematicidal activity (percentage of gall formation; 100% = no galls)” value in series [1] is on record as 100%. Further, the logP in series [3] (HPLC on reversed phase column, method [b], pH 2.7) was 3.39^[b].
`O=C(N[C@@H]1CC[C@@H]1c1ccc(Cl)cc1Cl)c1ccccc1Cl` (relative stereo) [Compound 261]: the “nematicidal activity (percentage of gall formation; 100% = no galls)” value in series [1] came out at 100%. The logP in series [3] (setting [6]) was 3.45^[b].
For `O=C(NC1CCCC1c1c(F)cccc1F)c1ccccc1I` (stereo not shown) [Compound 322] the same measures were 90% and 3.40^[b].
For `O=C(N[C@@H]1CC[C@@H]1c1ccc(F)cc1C(F)(F)F)c1ccccc1I` (relative stereo) [Compound 503] the same measures were 100% and 3.50^[b].
As to `O=C(N[C@@H]1CC[C@H]1c1ccccc1Cl)c1sccc1I` (relative stereo) [Compound 544], in series [1], the “nematicidal activity (percentage of gall formation; 100% = no galls)” value worked out at 90%. In addition, the logP in series [3] (setting [6]) was 3.86^[b].

These data come from US20160075653A1, “NEMATICIDAL N-(PHENYLCYCLOALKYL)CARBOXAMIDES AND N-(PHENYLCYCLOALKYL)THIOCARBOXAMIDES” (BAYER CROPSCIENCE AKTIENGESELLSCHAFT, priority 2013, published 2016).
